Measured values taken from the NIST ThermoML archive (doi:10.1021/je060271a).
Several values for one entry are separate records, joined by “and”; a condition that tells them apart may be missing. Equal entries are not always repeated.

Settings: Liquid, Vibrating tube method

CCCCCC(=O)OCC(COC(=O)CCCCC)(COC(=O)CCCCC)COC(=O)CCCCC [pentaerythritol tetrahexanoate]
Settings	mass density
283.14 K, 6785.3 kPa	1008.1 kg/m3
283.14 K, 6787.6 kPa	1008 kg/m3 and 1008.2 kg/m3
283.14 K, 6787.7 kPa	1008.1 kg/m3
283.14 K, 6787.9 kPa	1008.1 kg/m3 and 1008 kg/m3
283.14 K, 30862 kPa	1021 kg/m3
283.14 K, 30898 kPa	1021 kg/m3
283.14 K, 30915 kPa	1021 kg/m3
283.14 K, 32175 kPa	1021.8 kg/m3
283.14 K, 32194 kPa	1021.7 kg/m3
283.14 K, 32218 kPa	1021.7 kg/m3
283.14 K, 32238 kPa	1021.8 kg/m3
283.14 K, 32258 kPa	1021.8 kg/m3
283.14 K, 32282 kPa	1021.8 kg/m3
283.14 K, 32303 kPa	1021.7 kg/m3
283.14 K, 32324 kPa	1021.8 kg/m3
283.15 K, 90.7 kPa	1004 kg/m3
283.15 K, 90.8 kPa	1004.1 kg/m3
283.15 K, 90.9 kPa	1004.2 kg/m3
283.15 K, 96 kPa	1004.2 kg/m3
283.15 K, 96.1 kPa	1004.2 kg/m3
283.15 K, 96.4 kPa	1004.1 kg/m3 and 1004.2 kg/m3
283.15 K, 96.6 kPa	1004.2 kg/m3
283.15 K, 96.7 kPa	1004.2 kg/m3
283.15 K, 96.9 kPa	1004.2 kg/m3
283.15 K, 97.3 kPa	1004.1 kg/m3
283.15 K, 97.4 kPa	1004.1 kg/m3 and 1004.2 kg/m3
283.15 K, 97.6 kPa	1004 kg/m3 and 1004.2 kg/m3
283.15 K, 99.3 kPa	1004.2 kg/m3
283.15 K, 101.4 kPa	1004.2 kg/m3
283.15 K, 101.6 kPa	1004.2 kg/m3
283.15 K, 102.1 kPa	1004.2 kg/m3
283.15 K, 102.2 kPa	1004.1 kg/m3 and 1004.2 kg/m3
283.15 K, 106.2 kPa	1004.2 kg/m3
283.15 K, 106.9 kPa	1004.1 kg/m3
283.15 K, 107 kPa	1004.2 kg/m3
283.15 K, 107.4 kPa	1004 kg/m3
283.15 K, 107.5 kPa	1004.1 kg/m3
283.15 K, 107.7 kPa	1004.2 kg/m3
283.15 K, 107.9 kPa	1004.2 kg/m3 and 1004.3 kg/m3
283.15 K, 111.3 kPa	1004.1 kg/m3
283.15 K, 111.5 kPa	1004.2 kg/m3
283.15 K, 111.7 kPa	1004.3 kg/m3
283.15 K, 112 kPa	1004.2 kg/m3
283.15 K, 112.3 kPa	1004.1 kg/m3
283.15 K, 112.4 kPa	1004.2 kg/m3
283.15 K, 112.5 kPa	1004.1 kg/m3
283.15 K, 112.7 kPa	1004.2 kg/m3 and 1004.1 kg/m3
283.15 K, 113 kPa	1004.1 kg/m3 and 1004.2 kg/m3
283.15 K, 113.2 kPa	1004.3 kg/m3 and 1004.1 kg/m3
283.15 K, 113.4 kPa	1004.2 kg/m3
283.15 K, 113.5 kPa	1004.1 kg/m3
283.15 K, 113.9 kPa	1004.2 kg/m3
283.15 K, 114.1 kPa	1004.2 kg/m3
283.15 K, 114.4 kPa	1004.1 kg/m3
283.15 K, 114.6 kPa	1004.1 kg/m3
283.15 K, 114.8 kPa	1004.3 kg/m3
283.15 K, 114.9 kPa	1004.2 kg/m3 and 1004.1 kg/m3
283.15 K, 115.1 kPa	1004.2 kg/m3
283.15 K, 115.4 kPa	1004.2 kg/m3
283.15 K, 115.5 kPa	1004.2 kg/m3
283.15 K, 115.8 kPa	1004.2 kg/m3
283.15 K, 116 kPa	1004.2 kg/m3
283.15 K, 116.3 kPa	1004.2 kg/m3
283.15 K, 116.5 kPa	1004.1 kg/m3
283.15 K, 116.7 kPa	1004.2 kg/m3
283.15 K, 116.8 kPa	1004.2 kg/m3
283.15 K, 117.2 kPa	1004.1 kg/m3
283.15 K, 117.3 kPa	1004.2 kg/m3 and 1004.3 kg/m3
283.15 K, 117.5 kPa	1004.2 kg/m3
283.15 K, 117.9 kPa	1004.2 kg/m3 and 1004.3 kg/m3
283.15 K, 118 kPa	1004.1 kg/m3
283.15 K, 118.2 kPa	1004.2 kg/m3
283.15 K, 118.4 kPa	1004.2 kg/m3
283.15 K, 118.7 kPa	1004.2 kg/m3
283.15 K, 118.9 kPa	1004.2 kg/m3
283.15 K, 119.1 kPa	1004.4 kg/m3 and 1004.2 kg/m3
283.15 K, 119.3 kPa	1004 kg/m3
283.15 K, 119.6 kPa	1004.2 kg/m3
283.15 K, 119.8 kPa	1004.1 kg/m3
283.15 K, 119.9 kPa	1004.3 kg/m3 and 1004.2 kg/m3
283.15 K, 120.1 kPa	1004.1 kg/m3
283.15 K, 121.3 kPa	1004.2 kg/m3
283.15 K, 121.7 kPa	1004.2 kg/m3 and 1004.1 kg/m3
283.15 K, 122 kPa	1004.3 kg/m3
283.15 K, 122.4 kPa	1004.1 kg/m3
283.15 K, 122.5 kPa	1004.3 kg/m3
283.15 K, 122.9 kPa	1004.1 kg/m3
283.15 K, 123 kPa	1004.2 kg/m3
283.15 K, 123.2 kPa	1004.2 kg/m3
283.15 K, 123.6 kPa	1004.3 kg/m3 and 1004.2 kg/m3
283.15 K, 123.7 kPa	1004.1 kg/m3
283.15 K, 123.9 kPa	1004.2 kg/m3 and 1004.1 kg/m3
283.15 K, 124.3 kPa	1004.2 kg/m3
283.15 K, 124.6 kPa	1004 kg/m3
283.15 K, 124.9 kPa	1004.1 kg/m3
283.15 K, 125 kPa	1004.2 kg/m3
283.15 K, 125.1 kPa	1004.1 kg/m3
283.15 K, 125.3 kPa	1004.2 kg/m3
283.15 K, 125.8 kPa	1004 kg/m3
283.15 K, 126 kPa	1004.3 kg/m3
283.15 K, 126.2 kPa	1004.2 kg/m3 and 1004.1 kg/m3
283.15 K, 127.9 kPa	1004.2 kg/m3
283.15 K, 128.1 kPa	1004.3 kg/m3
283.15 K, 128.4 kPa	1004.3 kg/m3
283.15 K, 134 kPa	1004.1 kg/m3
283.15 K, 134.1 kPa	1004.2 kg/m3
283.15 K, 134.3 kPa	1004.1 kg/m3
283.15 K, 134.5 kPa	1004.3 kg/m3
283.15 K, 135 kPa	1004.2 kg/m3
283.15 K, 135.2 kPa	1004.2 kg/m3
283.15 K, 135.3 kPa	1004.1 kg/m3
283.15 K, 136 kPa	1004.2 kg/m3
283.15 K, 136.4 kPa	1004.2 kg/m3
283.15 K, 136.6 kPa	1004.2 kg/m3 and 1004.1 kg/m3
283.15 K, 136.7 kPa	1004.3 kg/m3
283.15 K, 136.9 kPa	1004.1 kg/m3
283.15 K, 137.4 kPa	1004.2 kg/m3
283.15 K, 137.6 kPa	1004.3 kg/m3 and 1004.2 kg/m3
283.15 K, 137.9 kPa	1004.3 kg/m3
283.15 K, 138.1 kPa	1004.2 kg/m3
283.15 K, 138.8 kPa	1004.2 kg/m3
283.15 K, 139 kPa	1004.1 kg/m3 and 1004.3 kg/m3
283.15 K, 139.2 kPa	1004.3 kg/m3 and 1004.2 kg/m3
283.15 K, 139.3 kPa	1004.2 kg/m3
283.15 K, 139.7 kPa	1004.2 kg/m3 and 1004.1 kg/m3 and 1004.3 kg/m3
283.15 K, 140.4 kPa	1004.3 kg/m3
283.15 K, 140.6 kPa	1004.3 kg/m3
283.15 K, 140.7 kPa	1004.2 kg/m3
283.15 K, 141.1 kPa	1004.2 kg/m3
283.15 K, 141.4 kPa	1004.2 kg/m3
283.15 K, 141.6 kPa	1004.2 kg/m3
283.15 K, 142.1 kPa	1004.3 kg/m3
283.15 K, 142.5 kPa	1004.2 kg/m3
283.15 K, 143 kPa	1004.2 kg/m3 and 1004.1 kg/m3
283.15 K, 143.2 kPa	1004.2 kg/m3
283.15 K, 144 kPa	1004.2 kg/m3 and 1004.1 kg/m3
283.15 K, 144.2 kPa	1004.3 kg/m3
283.15 K, 144.4 kPa	1004.1 kg/m3
283.15 K, 144.7 kPa	1004.1 kg/m3
283.15 K, 145.4 kPa	1004.2 kg/m3
283.15 K, 145.9 kPa	1004.3 kg/m3
283.15 K, 146.3 kPa	1004.2 kg/m3
283.15 K, 146.6 kPa	1004.2 kg/m3
283.15 K, 147.3 kPa	1004.2 kg/m3
